This passage reports EC50 results from patent publication US9273067B2, “Pyrazolopyrimidine macrocycles as inhibitors of human immunodeficiency virus replication” (BRISTOL-MYERS SQUIBB COMPANY, priority 2014, dated 2016).

The assay deals with NL-RLuc virus (recombinant HIV NL4-3 with Renilla Luciferase) in MT-2 cells. The assay can be described thus: Inhibition of HIV replication (NL-RLuc virus in MT-2 cells, luciferase readout). In kind it is cell-based, human immunodeficiency virus (HIV). From the text: Inhibition of HIV Replication:
A recombinant NL-RLuc proviral clone was constructed in which a section of the nef gene from NL4-3 was replaced with the Renilla Luciferase gene. This virus is fully infectious and can undergo multiple cycles of replication in cell culture. In addition, the luciferous reporter provides a simple and easy method for quantitating the extent of virus growth and consequently, the antiviral activity of test compounds. The plasmid pNLRLuc contains the proviral NL-Rluc DNA cloned into pUC 18 at the PvuII site. The NL-RLuc virus was prepared by transfection of 293T cells with the plasmid pNLRLuc. Transfections were performed using the LipofectAMINE PLUS kit from Invitrogen (Carlsbad, Calif.) according to the manufacturer and the virus generated was titered in MT-2 cells. For susceptibility analyses, the titrated virus was used to infect MT-2 cells in the presence of compound, and after 5 days of incubation, cells were processed and quantitated for virus growth by the amount of expressed luciferase. Assay media was RPMI 1640 supplemented with 10% heat inactivated fetal bovine serum (FBS), 100 units/ml penicillin G/100 units/ml streptomycin, 10 mM HEPES buffer pH 7.55 and 2 mM L-glutamine. The results from at least 2 experiments were used to calculate the EC50 values. Luciferase was quantitated using the Dual Luciferase kit from Promega (Madison, Wis.). Susceptibility of viruses to compounds was determined by incubation in the presence of serial dilutions of the compound. The 50% effective concentration (EC50) was calculated by using the exponential form of the median effect equation where (Fa)=1/[1+(ED50/drug conc.)^m] (Johnson V A, Byington R T. Infectivity Assay. In Techniques in HIV Research. ed. Aldovini A, Walker B D. 71-76. New York: Stockton Press. 1990).

Where [1] appears, read: NL-RLuc virus infecting MT-2 cells, 5 days of incubation, 10% FBS, luciferase quantitation, at least 2 experiments, read-out: EC50.
Setting [2] is: MT2, 120 h, NL-RLuc virus infecting MT-2 cells, 5 days of incubation, 10% FBS, luciferase quantitation, at least 2 experiments.

Read-outs that look alike come from different tables or passages of the source.

By EC50 is commonly meant the concentration that produces a half-maximal response. As for `Cc1nc2cc3nn2c(c1[C@H](OC(C)(C)C)C(=O)O)N1CCC(C)(CC1)OC/C=C\Cc1ccccc1OC3` [Example 22, (2S)-2-(tert-Butoxy)-2-[(19Z)-4,23-dimethyl-11,22-dioxa-1,5,7,8-tetraazapentacyclo[21.2.2.1^6,^9.1^2,^7.0^12,^17]octacosa-2,4,6(28),8,12(17),13,15,19-octaen-3-yl]acetic acid], the half-maximal effective concentration (EC50) under setting [1] worked out at 141 nM. On the same count and under the same terms, the result for `Cc1nc2cc3nn2c(c1[C@H](OC(C)(C)C)C(=O)O)N1CCC(C)(CC1)OCCCC[C@H](C)Oc1cc(F)ccc1CCC3` [Example 40, (2S)-2-(tert-Butoxy)-2-[(20S)-16-fluoro-4,20,26-trimethyl-19,25-dioxa-1,5,7,8-tetraazapentacyclo[24.2.2.1^6,^9.0^2,^7.0^13,^18]hentriaconta-2,4,6(31),8,13(18),14,16-heptaen-3-yl]acetic acid] reads 31 nM. For the compound `Cc1nc2cc3nn2c(c1[C@H](OC(C)(C)C)C(=O)O)N1CCC(C)(CC1)OCCCCOC(CC(C)C)c1cn(nn1)C3` (stereo partly drawn) [Example 13, (2S)-2-(tert-Butoxy)-2-[4,22-dimethyl-15-(2-methylpropyl)-16,21-dioxa-1,5,7,8,11,12,13-heptaazapentacyclo[20.2.2.1^6,^9.1^11,^14.0^2,^7]octacosa-2,4,6(28),8,12,14(27)-hexaen-3-yl]acetic acid], for the setting “{}”, the EC50 stood at 124 nM. With `Cc1nc2cc3nn2c(c1[C@H](OC(C)(C)C)C(=O)O)N1CCC(C)(CC1)OCCCC[C@H](C)Oc1cc2ccccc2cc1COC3` [Example 53, (2S)-2-(tert-butoxy)-2-[(24S)-4,24,30-trimethyl-11,23,29-trioxa-1,5,7,8-tetraazahexacyclo[28.2.2.1^6,^9.0^2,^7.0^13,^22.0^15,^20]pentatriaconta-2,4,6(35),8,13,15,17,19,21-nonaen-3-yl]acetic acid], the EC50 under setting [2] turned out to be 2 nM. In the case of `Cc1ccc(C2CCCCOC3(C)CCN(CC3)c3c([C@H](OC(C)(C)C)C(=O)O)c(C)nc4cc(nn34)CO2)cc1` (stereo partly drawn) [Example 46, (2S)-2-(tert-butoxy)-2-[4,18-dimethyl-12-(4-methylphenyl)-11,17-dioxa-1,5,7,8-tetraazatetracyclo[16.2.2.1^6,^9.0^2,^7]tricosa-2,4,6(23),8-tetraen-3-yl]acetic acid], where the note is “{}”, the EC50 was found to be 735 nM. Regarding `Cc1nc2cc3nn2c(c1[C@H](OC(C)(C)C)C(=O)O)N1CCC(C)(CC1)OCCCCc1ccccc1COC3` [Example 24, (2S)-2-(tert-Butoxy)-2-{4,24-dimethyl-11,23-dioxa-1,5,7,8-tetraazapentacyclo[22.2.2.1^6,^9.0^2,^7.0^13,^18]nonacosa-2,4,6(29),8,13(18),14,16-heptaen-3-yl}acetic acid], the EC50 under setting [2] was 3 nM. Regarding `Cc1nc2cc3nn2c(c1[C@H](OC(C)(C)C)C(=O)O)N1CCC(C)(CC1)OCCC=COC(C)(C)c1cn(nn1)C3` [Example 4, (2S)-2-(tert-Butoxy)-2-[4,15,15,22-tetramethyl-16,21-dioxa-1,5,7,8,11,12,13-heptaazapentacyclo[20.2.2.1^6,^9.1^11,^14.0^2,^7]octacosa-2,4,6(28),8,12,14(27),17-heptaen-3-yl]acetic acid], the EC50 under setting [1] is 249 nM. Consider `Cc1nc2cc3nn2c(c1[C@H](OC(C)(C)C)C(=O)O)N1CCC(C)(CC1)OCCCc1ccccc1COC3` [Example 23, (2S)-2-(tert-Butoxy)-2-{4,23-dimethyl-11,22-dioxa-1,5,7,8-tetraazapentacyclo[21.2.2.1^6,^9.0^2,^7.0^13,^18]octacosa-2,4,6(28),8,13(18),14,16-heptaen-3-yl}acetic acid], for which, under setting [2], the 50% effective concentration (EC50) came to 11 nM. Same read-out and setting: to `Cc1nc2cc3nn2c(c1[C@H](OC(C)(C)C)C(=O)O)N1CCC(C)(CC1)OCCCCOc1cccc(c1)-c1cn(nn1)C3` [Example 6, (2S)-2-(tert-Butoxy)-2-{4,26-dimethyl-20,25-dioxa-1,5,7,8,11,12,13-heptaazahexacyclo[24.2.2.1^6,^9.1^11,^14.1^15,^19.0^2,^7]tritriaconta-2,4,6(33),8,12,14(32),15(31),16,18-nonaen-3-yl}acetic acid] belongs 80 nM. The same measure, in the same setting: to `Cc1nc2cc3nn2c(c1[C@H](OC(C)(C)C)C(=O)O)N1CCC(C)(CC1)OCCCCc1cc(F)c(F)cc1COC3` [Example 68, (2S)-2-(tert-Butoxy)-2-{15,16-difluoro-4,24-dimethyl-11,23-dioxa-1,5,7,8-tetraazapentacyclo[22.2.2.1^6,^9.0^2,^7.0^13,^18]nonacosa-2,4,6(29),8,13(18),14,16-heptaen-3-yl}acetic acid] belongs 1 nM. For the compound `Cc1nc2cc3nn2c(c1[C@H](OC(C)(C)C)C(=O)O)N1CCC(C)(CC1)OCC/C=C\c1ccccc1OC3` [Example 20], the EC50 under setting [1] is 105 nM.

Consider `Cc1ccc2c(c1)O[C@@H](C)CCCCOC1(C)CCN(CC1)c1c([C@H](OC(C)(C)C)C(=O)O)c(C)nc3cc(nn13)CN(C1CC1)C2` [Example 64, (2S)-2-(tert-Butoxy)-2-[(20S)-11-cyclopropyl-4,16,20,26-tetramethyl-19,25-dioxa-1,5,7,8,11-pentaazapentacyclo[24.2.2.1^6,^9.0^2,^7.0^13,^18]hentriaconta-2,4,6(31),8,13(18),14,16-heptaen-3-yl]acetic acid], for which, under setting [2], the concentration giving a half-maximal response (EC50) was determined as 12 nM. Same read-out and setting: the result for `Cc1nc2cc3nn2c(c1[C@H](OC(C)(C)C)C(=O)O)N1CCC(C)(CC1)OCCCCCCc1ccccc1COC3` [Example 58, (2S)-2-(tert-Butoxy)-2-{4,26-dimethyl-11,25-dioxa-1,5,7,8-tetraazapentacyclo[24.2.2.1^6,^9.0^2,^7.0^13,^18]hentriaconta-2,4,6(31),8,13(18),14,16-heptaen-3-yl}acetic acid] reads 62 nM.

In the case of `CCCC1CCCCOC2(C)CCN(CC2)c2c([C@H](OC(C)(C)C)C(=O)O)c(C)nc3cc(nn23)COCc2cc(F)ccc2O1` (stereo partly drawn) [Example 50, (2S)-2-(tert-butoxy)-2-{15-fluoro-4,26-dimethyl-20-propyl-11,19,25-trioxa-1,5,7,8-tetraazapentacyclo[24.2.2.1^6,^9.0^2,^7.0^13,^18]hentriaconta-2,4,6(31),8,13(18),14,16-heptaen-3-yl}acetic acid], the EC50 ({}) was determined as 19 nM. In the case of `Cc1cc2c(cc1Cl)COCc1cc3nc(C)c([C@H](OC(C)(C)C)C(=O)O)c(n3n1)N1CCC(C)(CC1)OCCCCC[C@H](C)O2` [Example 70, (2S)-2-(tert-Butoxy)-2-[(20S)-15-chloro-4,16,20,27-tetramethyl-11,19,26-trioxa-1,5,7,8-tetraazapentacyclo[25.2.2.1^6,^9.0^2,^7.0^13,^18]dotriaconta-2,4,6(32),8,13,15,17-heptaen-3-yl]acetic acid], the 50% effective concentration (EC50) under setting [2] was determined as 43 nM. Regarding `Cc1ccc(C2CCCCOC3(C)CCN(CC3)c3c([C@H](OC(C)(C)C)C(=O)O)c(C)nc4cc(nn34)CO2)cc1` (stereo partly drawn) [Example 47, (2S)-2-(tert-butoxy)-2-[4,18-dimethyl-12-(4-methylphenyl)-11,17-dioxa-1,5,7,8-tetraazatetracyclo[16.2.2.1^6,^9.0^2,^7]tricosa-2,4,6(23),8-tetraen-3-yl]acetic acid], the 50% effective concentration (EC50) ({}) is 1590 nM.

Regarding `Cc1ccc2c(c1)O[C@@H](C)C/C=C\COC1(C)CCN(CC1)c1c([C@H](OC(C)(C)C)C(=O)O)c(C)nc3cc(nn13)COC2` [Example 36, (2S)-2-(tert-Butoxy)-2-[(20S,22Z)-4,16,20,26-tetramethyl-11,19,25-trioxa-1,5,7,8-tetraazapentacyclo[24.2.2.1^6,^9.0^2,^7.0^13,^18]hentriaconta-2,4,6(31),8,13(18),14,16,22-octaen-3-yl]acetic acid], the 50% effective concentration (EC50) under setting [1] worked out at 3690 nM.

Regarding `Cc1ccc2c(c1)O[C@@H](C)CCCCOC1(C)CCN(CC1)c1c([C@H](OC(C)(C)C)C(=O)O)c(C)nc3cc(nn13)CO[C@@H]2C` (single isomer, unassigned) [Example 56], the EC50 under setting [2] was determined as 8 nM. Still for that read-out and setting: to `Cc1nc2cc3nn2c(c1[C@H](OC(C)(C)C)C(=O)O)N1CCC(C)(CC1)OCCCC[C@H](C)Oc1c(ccc2ccccc12)COC3` [Example 61, (2S)-2-(tert-butoxy)-2-[(24S)-4,24,30-trimethyl-11,23,29-trioxa-1,5,7,8-tetraazahexacyclo[28.2.2.1^6,^9.0^2,^7.0^13,^22.0^16,^21]pentatriaconta-2,4,6(35),8,13(22),14,16(21),17,19-nonaen-3-yl]acetic acid] belongs 5 nM; to `Cc1nc2cc3nn2c(c1[C@H](OC(C)(C)C)C(=O)O)N1CCC(C)(CC1)OCCCCc1cccc(c1)COC3` [Example 63, (2S)-2-(tert-Butoxy)-2-{4,23-dimethyl-11,22-dioxa-1,5,7,8-tetraazapentacyclo[21.2.2.1^6,^9.1^13,^17.0^2,^7]nonacosa-2,4,6(29),8,13(28),14,16-heptaen-3-yl}acetic acid], 16 nM.
